Consider nine molecules from PubChem BioAssay (NCI).

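Protocol summary: plate cells (96-well), add compound at 5 concentrations, incubate 48 h, interpolate endpoints linearly. Here, GI50 denotes the concentration required for 50% inhibition of growth. TGI marks complete inhibition of growth.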

Some test systems named below: NCI-H23 lung; SNB-75 CNS; HT29 colon; SK-OV-3 ovarian; MDA-MB-231 breast; SN12C renal; RXF 393 renal; EKVX NSCLC; ACHN renal; COLO 205 colon.
Common to all, as to assay: NCI-60 cell line screen, 48 h

Consider `COc1cccc(-n2ncc3c(N/N=C/c4ccc(C)cc4)ncnc32)c1`, for which the GI50 with NCI-H23 lung is above 25 µM; in the assay on SNB-75 CNS it was above 25 µM; in the assay with HT29 colon, 1.89 µM; in the assay on SK-OV-3 ovarian, above 25 µM; in the assay with MDA-MB-231 breast, above 25 µM; with SN12C renal, above 25 µM. Further, the GI50 was above 25 µM in the assay on RXF 393 renal, above 25 µM in the assay on EKVX NSCLC, above 25 µM in the assay with ACHN renal and 9.56 µM in the assay with COLO 205 colon. The TGI in the assay with NCI-H23 lung, in the assay on SNB-75 CNS, in the assay on HT29 colon, in the assay on SK-OV-3 ovarian, in the assay on MDA-MB-231 breast and with SN12C renal was above 25 µM each time. The TGI in the assay on RXF 393 renal, in the assay with EKVX NSCLC, with ACHN renal and with COLO 205 colon was above 25 µM throughout.

As for `O=C1CSC(c2ccc(-c3nc4ccccc4[nH]3)cc2)=N1`, the GI50 with NCI-H23 lung was 47.4 µM; in the assay with SK-OV-3 ovarian, above 50 µM; in the assay on MDA-MB-231 breast it was above 50 µM; in the assay with SN12C renal, above 50 µM; in the assay with EKVX NSCLC, above 50 µM; in the assay with ACHN renal, 24.7 µM. Besides, in the assay with COLO 205 colon, the GI50 was above 50 µM. Moreover, the TGI in the assay with NCI-H23 lung, in the assay with SK-OV-3 ovarian, in the assay with MDA-MB-231 breast, with SN12C renal, in the assay on EKVX NSCLC and in the assay with ACHN renal was above 50 µM each time. In addition, the TGI in the assay with COLO 205 colon was above 50 µM.

Consider `COc1cc(-c2nn(-c3cccc(NC(=O)NCCNS(=O)(=O)c4ccc(Cl)cc4)c3)cc2-c2ccncc2)ccc1Cl`, for which the GI50 in the assay on NCI-H23 lung is 1.21 µM; in the assay on SNB-75 CNS, 0.353 µM; in the assay on HT29 colon it was 0.37 µM; in the assay on SK-OV-3 ovarian, 1.85 µM; with MDA-MB-231 breast, 1.51 µM; with SN12C renal, 1.19 µM. In addition, the GI50 with RXF 393 renal was 0.307 µM; in the assay on EKVX NSCLC, 2.15 µM; in the assay on ACHN renal, 2.69 µM. Moreover, the TGI in the assay on NCI-H23 lung was 8.79 µM; in the assay on SNB-75 CNS, above 100 µM; in the assay with HT29 colon, 1.51 µM; with SK-OV-3 ovarian, 17.5 µM; in the assay with MDA-MB-231 breast, 4.38 µM; in the assay with SN12C renal, 13.2 µM. Moreover, the results for the TGI with RXF 393 renal, in the assay with EKVX NSCLC and in the assay with ACHN renal were 2.18 µM, above 100 µM and 11.8 µM, respectively.

On to `O=C(O)/C=C/c1ccc[c]([Sb](=[O])([OH])[OH])c1`, for which the GI50 with NCI-H23 lung, in the assay with HT29 colon, in the assay on MDA-MB-231 breast, in the assay on SN12C renal, in the assay on RXF 393 renal and in the assay with EKVX NSCLC was above 100 µM each time. Further, the GI50 with ACHN renal was above 100 µM. The TGI in the assay on NCI-H23 lung, in the assay with HT29 colon, in the assay on MDA-MB-231 breast, in the assay with SN12C renal, in the assay with RXF 393 renal and in the assay with EKVX NSCLC was above 100 µM each time. For the same molecule, the TGI with ACHN renal was above 100 µM.

For the molecule `CN(C)C[C@H]1CCn2c(c(C3=C(c4cn(C)c5ccccc45)C(=O)NC3=O)c3ccccc32)C1`, the GI50 was 6.58 µM in the assay on NCI-H23 lung; 0.562 µM with SNB-75 CNS; 3.45 µM in the assay on HT29 colon; 5.17 µM in the assay on SK-OV-3 ovarian; 3.96 µM with MDA-MB-231 breast; 4.39 µM with SN12C renal. Moreover, the GI50 in the assay on RXF 393 renal was 3.67 µM; with ACHN renal, 4.3 µM; in the assay on COLO 205 colon, 3.71 µM. Besides, the TGI in the assay with NCI-H23 lung worked out at 15 µM; in the assay with SNB-75 CNS it was 5.16 µM; with HT29 colon, 11.5 µM; in the assay with SK-OV-3 ovarian, 11.5 µM; with MDA-MB-231 breast, 10.3 µM; in the assay with SN12C renal, 9.66 µM. Also, the TGI with RXF 393 renal amounted to 7.18 µM; in the assay on ACHN renal, 9.87 µM; with COLO 205 colon, 7.5 µM.

In the case of `COc1cc(OC)cc(-c2nc3sccn3c2/C=N/N=C(N)N)c1`, the GI50 in the assay on NCI-H23 lung is 7.9 µM; in the assay with HT29 colon, 8.14 µM; with SK-OV-3 ovarian, 7.28 µM; with MDA-MB-231 breast it was 6.91 µM; in the assay with SN12C renal, 7 µM; in the assay with RXF 393 renal, 7.96 µM. Moreover, the GI50 was 8.2 µM in the assay with EKVX NSCLC, 8.58 µM with ACHN renal and 3.11 µM with COLO 205 colon. Further, the TGI in the assay on NCI-H23 lung is 15.6 µM; in the assay on HT29 colon it was 14.9 µM; with SK-OV-3 ovarian it was 15.5 µM; in the assay on MDA-MB-231 breast it was 13.6 µM; in the assay with SN12C renal, 13.6 µM; in the assay on RXF 393 renal, 16.7 µM. The TGI with EKVX NSCLC is 15.9 µM; in the assay with ACHN renal, 17.5 µM; in the assay on COLO 205 colon it was 15.8 µM.

As to `Cc1ccc(-c2c(C#N)[n+](=O)c3cc(F)c(F)cc3n2[O-])cc1`, the GI50 with NCI-H23 lung was 2.33 µM; in the assay with SNB-75 CNS, 19.2 µM; in the assay on HT29 colon, 24.7 µM; with MDA-MB-231 breast, 1.81 µM; in the assay on SN12C renal, 2.61 µM; with RXF 393 renal, 2.63 µM. Further, the figures for the GI50 with EKVX NSCLC, in the assay on ACHN renal and in the assay with COLO 205 colon were 21.2 µM, 2.2 µM and 19.5 µM, respectively. The TGI in the assay on NCI-H23 lung is 6.47 µM; in the assay with SNB-75 CNS it was 34.6 µM; with HT29 colon it was 61 µM; in the assay on MDA-MB-231 breast, 3.98 µM; in the assay on SN12C renal, 8.56 µM; in the assay on RXF 393 renal it was 8.91 µM. Also, the TGI came to 38.9 µM in the assay on EKVX NSCLC, 5.83 µM with ACHN renal and 38.6 µM in the assay with COLO 205 colon.

For the molecule `O=C1OCC(c2ccc(O)cc2)=C1c1cc(O)c(O)c(O)c1`, the GI50 with NCI-H23 lung is above 100 µM; in the assay on SNB-75 CNS it was above 100 µM; in the assay with HT29 colon, above 100 µM; in the assay on MDA-MB-231 breast, above 100 µM; in the assay with SN12C renal, 54 µM; in the assay on RXF 393 renal, above 100 µM. For the same molecule, the GI50 in the assay on EKVX NSCLC, in the assay with ACHN renal and with COLO 205 colon was above 100 µM each time. Further, the TGI with NCI-H23 lung, in the assay with SNB-75 CNS, in the assay on HT29 colon, in the assay with MDA-MB-231 breast, in the assay on SN12C renal and with RXF 393 renal was above 100 µM each time. The TGI in the assay with EKVX NSCLC, in the assay on ACHN renal and in the assay with COLO 205 colon was above 100 µM each time.

As for `CCN(CC)CCCOc1ccc2ncnc(Nc3ccc(Oc4cccc(C(F)(F)F)c4)c(Cl)c3)c2c1`, the GI50 is 1.56 µM in the assay with NCI-H23 lung; 1.49 µM with SNB-75 CNS; 1.79 µM with MDA-MB-231 breast; 1.34 µM with SN12C renal; 1.45 µM in the assay with RXF 393 renal; 1.26 µM in the assay on EKVX NSCLC. In the assay on ACHN renal, the GI50 is 1.07 µM. Further, the TGI was 3.05 µM in the assay with NCI-H23 lung; 2.86 µM in the assay on SNB-75 CNS; 3.24 µM in the assay on MDA-MB-231 breast; 2.69 µM in the assay on SN12C renal; 2.97 µM in the assay on RXF 393 renal; 2.85 µM with EKVX NSCLC. This molecule also returned a TGI with ACHN renal of 2.26 µM.
